Laboratory results: patent US20260015350A1, “AZAQUINAZOLINE PAN-KRAS INHIBITORS” (Mirati Therapeutics, Inc., priority 2022, published 2026)

Experiments:
KRas^WT = target: T1, KRas^WT (Homo sapiens, UniProt P01116); experiment: KRas binding assay (TR-FRET tracer displacement), KRas WT; conditions: single point, 10 nM compound, TR-FRET
T1 construct: Biotinylated KRas (corresponding to amino acids 1-169, produced at Accelegan Inc.); biotin (biotinylated); purchased Accelegan Inc

KRas^G12A = target: T2, KRas^G12A (Homo sapiens, UniProt P01116, G12A); experiment: KRas binding assay (TR-FRET tracer displacement), KRas G12A; conditions: single point, 10 nM compound, TR-FRET
T2 construct: Biotinylated KRas (corresponding to amino acids 1-169, produced at Accelegan Inc.); biotin (biotinylated); purchased Accelegan Inc

KRas^G12C = target: T3, KRas^G12C (Homo sapiens, UniProt P01116, G12C); experiment: KRas binding assay (TR-FRET tracer displacement), KRas G12C; conditions: single point, 10 nM compound, TR-FRET
T3 construct: Biotinylated KRas (corresponding to amino acids 1-169, produced at Accelegan Inc.); biotin (biotinylated); purchased Accelegan Inc

KRas^G12D = target: T4, KRas^G12D (Homo sapiens, UniProt P01116, G12D); experiment: KRas binding assay (TR-FRET tracer displacement), KRas G12D
T4 construct: Biotinylated KRas (corresponding to amino acids 1-169, produced at Accelegan Inc.); biotin (biotinylated); purchased Accelegan Inc

KRas^G12R = target: T5, KRas^G12R (Homo sapiens, UniProt P01116, G12R); experiment: KRas binding assay (TR-FRET tracer displacement), KRas G12R
T5 construct: Biotinylated KRas (corresponding to amino acids 1-169, produced at Accelegan Inc.); biotin (biotinylated); purchased Accelegan Inc

KRas^G12S = target: T6, KRas^G12S (Homo sapiens, UniProt P01116, G12S); experiment: KRas binding assay (TR-FRET tracer displacement), KRas G12S; conditions: single point, 10 nM compound, TR-FRET
T6 construct: Biotinylated KRas (corresponding to amino acids 1-169, produced at Accelegan Inc.); biotin (biotinylated); purchased Accelegan Inc

KRas^G12V = target: T7, KRas^G12V (Homo sapiens, UniProt P01116, G12V); experiment: KRas binding assay (TR-FRET tracer displacement), KRas G12V
T7 construct: Biotinylated KRas (corresponding to amino acids 1-169, produced at Accelegan Inc.); biotin (biotinylated); purchased Accelegan Inc

KRas^G13D = target: T8, KRas^G13D (Homo sapiens, UniProt P01116, G13D); experiment: KRas binding assay (TR-FRET tracer displacement), KRas G13D; conditions: single point, 10 nM compound, TR-FRET
T8 construct: Biotinylated KRas (corresponding to amino acids 1-169, produced at Accelegan Inc.); biotin (biotinylated); purchased Accelegan Inc

KRas^Q61H = target: T9, KRas^Q61H (Homo sapiens, UniProt P01116, Q61H); experiment: KRas binding assay (TR-FRET tracer displacement), KRas Q61H; conditions: single point, 10 nM compound, TR-FRET
T9 construct: Biotinylated KRas (corresponding to amino acids 1-169, produced at Accelegan Inc.); biotin (biotinylated); purchased Accelegan Inc

[1] = tested on: KRas-mediated phosphorylation of ERK in MKN1 cells; experiment: Inhibition of KRas-mediated phosphorylation of ERK (Cisbio HTRF pERK), MKN1 cells; type: cell-based; conditions: Homo sapiens, MKN-1
Procedure, shortened: (§1)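 Day 1 seeding: 6,000 cells per well, RPMI/10% FBS, left overnight at 37° C. with 5% CO2. Plates then stood covered for 4 h at room temperature prior to HTRF detection of pERK.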

[2] = tested on: KRas-mediated phosphorylation of ERK in PSN1 cells; experiment: Inhibition of KRas-mediated phosphorylation of ERK (Cisbio HTRF pERK), PSN1 cells; type: cell-based; conditions: Homo sapiens
Procedure, shortened: as §1

[3] = tested on: KRas-mediated phosphorylation of ERK in AsPC-1 cells; experiment: Inhibition of KRas-mediated phosphorylation of ERK (Cisbio HTRF pERK), AsPC-1 cells; type: cell-based; conditions: Homo sapiens, ASPC1, AsPC-1 cells; HTRF pERK
Procedure, shortened: (§2)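 Phosphorylated ERK was quantified by HTRF using d2-conjugate and Cryptate antibodies added to lysates for 2 hrs at room temperature.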

[4] = tested on: KRas-mediated phosphorylation of ERK in H727 cells; experiment: Inhibition of KRas-mediated phosphorylation of ERK (Cisbio HTRF pERK), H727 cells; type: cell-based; conditions: Homo sapiens, NCI-H727, H727 cells; HTRF pERK
Procedure, shortened: as §2

[5] = tested on: KRas-mediated phosphorylation of ERK in A549 cells; experiment: Inhibition of KRas-mediated phosphorylation of ERK (Cisbio HTRF pERK), A549 cells; type: cell-based; conditions: Homo sapiens; for inhibition at 0.1 µM: A549, 3 h, single point, 100 nM compound, 3 hrs
Procedure, shortened: (§3)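 Cells were seeded at 6,000 per well and treated for 3 hrs with compound in a 10-dose, 3-fold series from 10 uM (0.8% final DMSO), with 0.2 uM Trametinib as Min control. Lysates made at 4° C over 40 mins were incubated 2 hrs at room temperature with d2- and Cryptate-labelled antibodies, then read by HTRF.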

[6] = tested on: KRas-mediated phosphorylation of ERK in H460 cells; experiment: Inhibition of KRas-mediated phosphorylation of ERK (Cisbio HTRF pERK), H460 cells; type: cell-based; conditions: Homo sapiens; for inhibition at 0.1 µM: NCI-H460, 3 h, single point, 100 nM compound, 3 hrs
Procedure, shortened: as §2

[7] = tested on: KRas-mediated phosphorylation of ERK in HCT116 cells; experiment: Inhibition of KRas-mediated phosphorylation of ERK (Cisbio HTRF pERK), HCT116 cells; type: cell-based; conditions: Homo sapiens; for inhibition at 0.1 µM: HCT-116, 3 h, single point, 100 nM compound, 3 hrs
Procedure, shortened: as §3

[8] = tested on: KRas-mediated phosphorylation of ERK in H358 cells; experiment: Inhibition of KRas-mediated phosphorylation of ERK (Cisbio HTRF pERK), H358 cells; type: cell-based; conditions: Homo sapiens; for inhibition at 0.1 µM: NCI-H358, 3 h, single point, 100 nM compound, 3 hrs
Procedure, shortened: as §2

T4 sequence (P01116 1-169 isoform P01116-2 G12D): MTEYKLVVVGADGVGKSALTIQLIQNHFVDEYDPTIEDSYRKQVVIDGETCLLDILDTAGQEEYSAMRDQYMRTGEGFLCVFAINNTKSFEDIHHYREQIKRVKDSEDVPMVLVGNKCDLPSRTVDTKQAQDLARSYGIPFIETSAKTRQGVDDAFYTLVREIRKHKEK
T8 sequence (P01116 1-169 isoform P01116-2 G13D): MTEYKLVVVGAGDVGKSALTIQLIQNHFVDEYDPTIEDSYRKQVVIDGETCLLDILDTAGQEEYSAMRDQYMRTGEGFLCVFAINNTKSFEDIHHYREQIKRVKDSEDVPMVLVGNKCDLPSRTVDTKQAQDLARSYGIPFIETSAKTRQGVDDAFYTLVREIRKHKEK
T1 sequence (P01116 1-169 isoform P01116-2): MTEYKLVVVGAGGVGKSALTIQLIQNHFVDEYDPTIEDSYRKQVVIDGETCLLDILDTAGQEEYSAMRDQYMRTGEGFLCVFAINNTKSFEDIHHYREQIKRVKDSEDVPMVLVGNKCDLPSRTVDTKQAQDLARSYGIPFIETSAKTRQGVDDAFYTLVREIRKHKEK
T2 sequence (P01116 1-169 isoform P01116-2 G12A): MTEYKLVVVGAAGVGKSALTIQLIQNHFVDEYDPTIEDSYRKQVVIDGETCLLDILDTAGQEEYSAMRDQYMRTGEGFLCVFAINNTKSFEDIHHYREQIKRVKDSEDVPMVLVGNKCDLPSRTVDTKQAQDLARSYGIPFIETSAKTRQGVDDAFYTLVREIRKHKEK
T7 sequence (P01116 1-169 isoform P01116-2 G12V): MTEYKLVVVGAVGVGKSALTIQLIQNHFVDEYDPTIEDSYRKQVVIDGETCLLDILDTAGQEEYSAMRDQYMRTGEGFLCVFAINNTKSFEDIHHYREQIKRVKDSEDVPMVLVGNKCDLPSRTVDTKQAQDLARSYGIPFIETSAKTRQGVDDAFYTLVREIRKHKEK
T9 sequence (P01116 1-169 isoform P01116-2 Q61H): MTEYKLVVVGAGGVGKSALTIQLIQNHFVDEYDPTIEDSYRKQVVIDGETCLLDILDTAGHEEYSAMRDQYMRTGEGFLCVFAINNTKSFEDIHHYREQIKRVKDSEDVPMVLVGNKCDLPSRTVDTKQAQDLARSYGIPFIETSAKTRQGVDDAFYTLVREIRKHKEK
T3 sequence (P01116 1-169 isoform P01116-2 G12C): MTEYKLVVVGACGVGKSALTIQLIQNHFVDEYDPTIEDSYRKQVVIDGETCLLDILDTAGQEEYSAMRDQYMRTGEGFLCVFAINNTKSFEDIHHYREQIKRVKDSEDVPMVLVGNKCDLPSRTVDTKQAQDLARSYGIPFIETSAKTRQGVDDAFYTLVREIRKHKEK
T5 sequence (P01116 1-169 isoform P01116-2 G12R): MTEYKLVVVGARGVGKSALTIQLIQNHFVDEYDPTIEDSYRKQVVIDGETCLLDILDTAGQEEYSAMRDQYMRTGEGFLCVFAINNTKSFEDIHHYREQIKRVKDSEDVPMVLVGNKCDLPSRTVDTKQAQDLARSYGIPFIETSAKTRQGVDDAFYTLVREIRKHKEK
T6 sequence (P01116 1-169 isoform P01116-2 G12S): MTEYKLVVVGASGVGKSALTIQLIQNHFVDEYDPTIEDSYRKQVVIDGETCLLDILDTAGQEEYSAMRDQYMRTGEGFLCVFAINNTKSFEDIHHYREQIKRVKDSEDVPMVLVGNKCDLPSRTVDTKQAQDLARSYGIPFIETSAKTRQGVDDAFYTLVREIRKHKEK

Row | inhibition at 0.01 µM (KRas^WT) | inhibition at 0.01 µM (KRas^G12A) | inhibition at 0.01 µM (KRas^G12C) | IC50 (KRas^G12D) | IC50 (KRas^G12R) | inhibition at 0.01 µM (KRas^G12S) | IC50 (KRas^G12V) | inhibition at 0.01 µM (KRas^G13D) | inhibition at 0.01 µM (KRas^Q61H) | IC50 [1] | IC50 [2] | IC50 [3] | IC50 [4] | Structure (SMILES) | inhibition at 0.1 µM [5] | inhibition at 0.1 µM [6] | inhibition at 0.1 µM [7] | inhibition at 0.1 µM [8] | further results
1 | 93% | 97% | 98% | < 2 nM | < 2 nM | 98% | < 2 nM | 93% | 94% | 7 nM | 4110 nM | 28 nM | 6 nM | CCc1c(F)ccc2cc(O)cc(-c3ncc4c(N5CCCCn6nc(C(=O)N(C)C)cc6C5)nc(OC[C@@]56CCCN5C[C@H](F)C6)nc4c3F)c12 [Example 671, 5-(7-(8-ethyl-7-fluoro-3-hydroxynaphthalen-1-yl)-8-fluoro-2-(((2R,7aS)-2-fluorotetrahydro-1H-pyrrolizin-7a(5H)-yl)methoxy)pyrido[4,3-d]pyrimidin-4-yl)-N,N-dimethyl-4,5,6,7,8,9-hexahydropyrazolo[1,5-a][1,4]diazocine-2-carboxamide] | 60% | 60% | 35% | 98% | –
2 | 91% | 93% | 98% | < 2 nM | < 2 nM | 97% | < 2 nM | 92% | 95% | 6 nM | > 10000 nM | 9 nM | 21 nM | CCc1c(F)ccc2cc(O)cc(-c3ncc4c(N5CCC(O)c6nn(C(=O)N(C)C)cc6C5)nc(OC[C@@]56CCCN5C[C@H](F)C6)nc4c3F)c12 (stereo partly drawn) [Example 674, 5-(7-(8-ethyl-7-fluoro-3-hydroxynaphthalen-1-yl)-8-fluoro-2-(((2R,7aS)-2-fluorohexahydro-1H-pyrrolizin-7a-yl)methoxy)pyrido[4,3-d]pyrimidin-4-yl)-8-hydroxy-N,N-dimethyl-5,6,7,8-tetrahydropyrazolo[4,3-c]azepine-2(4H)-carboxamide] | 74% | 63% | 17% | 97% | IC50 ([5]; HTRF pERK): 30 nM; IC50 ([6]; NCI-H460, HTRF pERK): 69 nM; IC50 ([7]; HCT-116, HTRF pERK): 191 nM; IC50 ([8]; NCI-H358, HTRF pERK): 2 nM
3 | 91% | 93% | 97% | < 2 nM | < 2 nM | 96% | < 2 nM | 90% | 92% | 16 nM | 7620 nM | 81 nM | 37 nM | CCc1c(F)ccc2cc(O)cc(-c3ncc4c(N5CCCCn6nc(C(=O)N7CCOCC7)cc6C5)nc(OC[C@@]56CCCN5C[C@H](F)C6)nc4c3F)c12 [Example 690, (5-(7-(8-ethyl-7-fluoro-3-hydroxynaphthalen-1-yl)-8-fluoro-2-(((2R,7aS)-2-fluorotetrahydro-1H-pyrrolizin-7a(5H)-yl)methoxy)pyrido[4,3-d]pyrimidin-4-yl)-4,5,6,7,8,9-hexahydropyrazolo[1,5-a][1,4]diazocin-2-yl)(morpholino)methanone] | 4% | 37% | 20% | 79% | –
4 | 76% | 76% | 84% | 9 nM | < 2 nM | 85% | 4 nM | 85% | 85% | 2 nM | 4410 nM | 79 nM | 24 nM | CCc1c(F)ccc2cc(O)cc(-c3ncc4c(N5CC6CC(O)C(C6)C5)nc(OC[C@]56CCCN5[C@H](COC(=O)N(C)C)CC6)nc4c3F)c12 (stereo partly drawn) [Example 707, ((3S,7aR)-7a-(((7-(8-ethyl-7-fluoro-3-hydroxynaphthalen-1-yl)-8-fluoro-4-(6-hydroxy-3-azabicyclo[3.2.1]octan-3-yl)pyrido[4,3-d]pyrimidin-2-yl)oxy)methyl)hexahydro-1H-pyrrolizin-3-yl)methyl dimethylcarbamate] | 71% | 84% | 47% | 88% | –
